Common to all, as to test: NCI-60 cell line screen, 48 h
The subject of assay [1] is DU-145 prostate.
Assay [2] has as its system HL-60(TB) leukemia.
Assay [3] relates to HT29 colon.
For assay [4], the system named is NCI-H226 lung.
For assay [5], the system named is NCI-H23 lung.
The test system of assay [6] is OVCAR-8 ovarian.
In assay [7] the test system is SF-539 CNS.
For assay [8], the system named is U251 CNS.
Assay [9] deals with SNB-75 CNS.
In assay [10] the test system is K-562 leukemia.

Each structure is given as a SMILES string.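 Tested at 5 concentrations; 48 h exposure; 96-well plates; endpoints linearly interpolated, else capped at highest concentration. At the GI50, growth is halved. Definition used: TGI = concentration required for complete inhibition of growth.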 Where only a bound is given, the exact number is not on record here.

Turning to `COc1cc(O)c(C(=O)/C=C/c2ccccc2)c(OC)c1`, the TGI in assay [1] worked out at 21 µM; in assay [2], 5.17 µM; in [3], 22.4 µM; in [4], 12.8 µM; in [5] it was 19.4 µM; in assay [6], 10.1 µM. The TGI was determined as 12.8 µM in assay [7] and 21.3 µM in assay [8].

For `COc1cc(C(=O)O)c([N+](=O)[O-])c(OC)c1OC`, the TGI in assay [1], in [3], in [4], in assay [5], in assay [6] and in assay [7] was above 100 µM each time. The TGI in assay [9] and in [8] was above 100 µM each time.

For `O=[N+]([O-])c1ccc(-c2ccc(/C=N/n3c(-c4ccc(Cl)cc4)n[nH]c3=S)o2)cc1`, the TGI was above 100 µM in [2]; above 55.2 µM in assay [3]; above 31.6 µM in assay [10]; above 58.5 µM in assay [4]; above 56.6 µM in assay [5]; above 100 µM in [6]. Further, the TGI in assay [7] was above 62.7 µM; in assay [9] it was above 83.1 µM; in [8], above 53.7 µM.

Take `CC1=C(C(=O)Nc2ccc([N+](=O)[O-])cc2)C(c2ccco2)C(C(=O)Nc2ccc([N+](=O)[O-])cc2)=C(C)N1`: the TGI in [2] was 26.5 µM; in [3], above 100 µM; in assay [10], above 100 µM; in assay [4], above 100 µM; in assay [5], 65.9 µM; in assay [6], above 100 µM. Besides, the TGI in assay [7], in assay [9] and in assay [8] was above 100 µM in each case.

Take `ClC(=Nc1cccc2ccccc12)N(c1ccccc1)c1ccccc1`: the TGI in [1], in [3], in assay [10], in assay [5], in assay [9] and in [8] was above 100 µM in each case.

Regarding `COC(=O)Nc1nc2ccc(C(=O)c3ccc[nH]3)cc2[nH]1`, the TGI in [1] is above 23.2 µM; in [2], 0.927 µM; in assay [3], above 100 µM; in assay [5] it was above 100 µM; in assay [6] it was above 100 µM; in assay [7] it was 42.3 µM. In addition, the TGI was 1.69 µM in assay [9] and above 100 µM in [8].

Regarding `COc1cccc(NC(=O)c2sc3nc4c(cc3c2N)CCCC4)c1`, the GI50 is 0.542 µM in [1]; 0.228 µM in assay [2]; 2.6 µM in [4]; 0.813 µM in assay [5]; 2.58 µM in assay [6]; 0.368 µM in [7]. Moreover, the GI50 in [9] was 0.271 µM; in [8], 0.607 µM. Further, the TGI was 56.1 µM in [1]; 0.765 µM in assay [2]; 43.8 µM in assay [4]; above 100 µM in [5]; above 100 µM in assay [6]; 12.8 µM in assay [7]. Also, the TGI turned out to be 2.77 µM in assay [9] and 19.2 µM in assay [8].

As to `CCOC(=O)c1cccc(=O)c(C(=O)OCC)c1`, the TGI was 62.1 µM in [2]; above 100 µM in assay [3]; above 100 µM in [10]; 45.4 µM in assay [4]; above 100 µM in assay [5]; above 100 µM in assay [6]. The values for the TGI in [7], in assay [9] and in [8] were 75.9 µM, above 100 µM and above 100 µM, respectively.

Turning to `COc1cc(-c2cc(C(=O)N3CCN(C(=O)c4ccccc4NCc4ccco4)CC3)nc3cc(-c4ccccc4)nn23)cc(OC)c1OC`, the GI50 in [2] was 3.7 µM; in [3], 1.56 µM; in assay [10], 1.95 µM; in [4] it was 5.48 µM; in [5], 5.5 µM; in [6], 4.38 µM. Moreover, the values for the GI50 in assay [7], in assay [9] and in assay [8] were 3.11 µM, 2.07 µM and 3.85 µM, respectively. Moreover, the TGI was 30.6 µM in [2]; 10.7 µM in [3]; above 100 µM in [10]; above 100 µM in [4]; above 100 µM in [5]; above 100 µM in assay [6]. In addition, the values for the TGI in assay [7], in assay [9] and in assay [8] were above 26 µM, 19.3 µM and above 100 µM, respectively.

Turning to `Cc1ccc(-c2c(C#N)c(N)nc(N3CCOCC3)c2C#N)o1`, the GI50 in [1] is 43.5 µM; in [2], 46.3 µM; in assay [3], 30.1 µM; in [10], 73.8 µM; in assay [4], 46.8 µM; in assay [6], 72.6 µM. The GI50 was 48.3 µM in assay [7] and 2.73 µM in assay [9]. The TGI in assay [1], in assay [2], in [3], in assay [10], in [4] and in assay [6] was above 100 µM in each case. The TGI is above 100 µM in assay [7] and 43.9 µM in assay [9].

Consider `COc1cc2c3c(n(C)c(=O)c2cc1OC)-c1cc2c(cc1/C3=C\CCCCN)OCO2`, for which the GI50 is 10.5 µM in [1]; 4.68 µM in assay [2]; 7.45 µM in assay [3]; 6.22 µM in assay [10]; 3.84 µM in assay [5]; 3.77 µM in assay [6]. Further, the GI50 was 2.83 µM in assay [7], 3.54 µM in assay [9] and 6.04 µM in assay [8]. The TGI in assay [1] was 31.4 µM; in assay [2], above 100 µM; in assay [3], above 100 µM; in assay [10], above 100 µM; in assay [5], 15.3 µM; in assay [6] it was 14.2 µM. Besides, the values for the TGI in assay [7], in [9] and in assay [8] were 6.23 µM, 7.12 µM and 21.6 µM, respectively.

For the compound `CC1=COC(=O)c2ccccc2N1`, the TGI in assay [2], in [3], in assay [10], in [4], in assay [5] and in assay [6] was above 100 µM in each case. For the same compound, the TGI in assay [7], in assay [9] and in [8] was above 100 µM throughout.

For `C=C(c1ccccc1N)[C@@]1(O)C[C@H](/C(=C\C)CO)C[C@@H]1NCc1ccccc1`, the TGI is 29.9 µM in [2]; 32.7 µM in assay [3]; 39.5 µM in [10]; 33.4 µM in [4]; above 100 µM in assay [5]; 53.2 µM in [6]. Besides, the TGI in assay [7] came out at 29.9 µM; in assay [9], 24.6 µM; in [8], 33.3 µM.

On to `O=C(O)CN(c1ccc(Cl)cc1)S(=O)(=O)c1ccccc1`, for which the TGI in [2], in assay [3], in assay [10], in assay [4], in assay [5] and in [6] was above 100 µM throughout. In addition, the TGI in assay [7], in assay [9] and in assay [8] was above 100 µM each time.

Take `Cc1ccc2c(c1)NC(c1ccc(C(=O)O)cc1)c1cccn1-2` (stereo not given): the TGI in [1] was 71.4 µM; in assay [3], above 100 µM; in assay [10], above 100 µM; in assay [4] it was above 100 µM; in assay [5], above 100 µM; in assay [7], above 100 µM. Moreover, the TGI is 39.6 µM in assay [9] and above 100 µM in [8].

For `CCCCCCC(=O)C/C(CCC(=O)N(Cc1ccccc1)Cc1ccccc1)=N\Nc1ccc([N+](=O)[O-])cc1[N+](=O)[O-]`, the TGI in assay [2] was above 100 µM; in assay [3], above 100 µM; in assay [10], 58.2 µM; in [4], above 100 µM; in assay [5] it was above 100 µM; in assay [6], above 100 µM. Also, the TGI in assay [7], in [9] and in assay [8] was above 100 µM in each case.

As to `COc1cc2cc(Oc3ccc(NC(=O)Nc4cccc(C(F)(F)F)c4)cc3)c(C)nc2cc1OCCN1CCCCC1`, the GI50 in [1] is 1.68 µM; in assay [2] it was 1.94 µM; in [10], 0.802 µM; in assay [4], 1.92 µM; in [5], 1.7 µM; in [7] it was 1.67 µM. Further, the GI50 in assay [9] is 1.15 µM. In addition, the TGI was found to be 3.06 µM in [1]; 3.74 µM in assay [2]; 3.11 µM in assay [10]; 4.62 µM in [4]; 3.26 µM in assay [5]; 3.05 µM in assay [7]. Also, in [9], the TGI was 2.37 µM.

As for `COc1cc2c(cc1OC)C(=O)C(Br)CC2` (stereo not given), the GI50 is 4.61 µM in [1]; 4.91 µM in assay [2]; 3.72 µM in [3]; 3.96 µM in [10]; 2.89 µM in assay [5]; 3.28 µM in [6]. Also, the figures for the GI50 in assay [7], in [9] and in assay [8] were 3.12 µM, 5.27 µM and 12.8 µM, respectively. Moreover, the TGI in assay [1] is 16.2 µM; in assay [2], 28.9 µM; in [3] it was 12.1 µM; in assay [10], above 100 µM; in [5] it was 10.9 µM; in [6], 11.7 µM. Also, the figures for the TGI in assay [7], in [9] and in assay [8] were 11.2 µM, 18.9 µM and 25.7 µM, respectively.

In the case of `COc1ccc(N(C)c2nc(C)nc3ccccc23)cc1`, the GI50 in assay [2], in assay [3], in assay [10], in assay [4], in assay [5] and in [6] was below 0.01 µM in each case. For the same compound, the GI50 in [7], in assay [9] and in assay [8] was below 0.01 µM throughout. Further, the TGI in assay [2] was below 0.01 µM; in assay [10], above 100 µM; in assay [4] it was 0.534 µM; in assay [5], 20.8 µM; in assay [6], above 63.1 µM; in assay [7] it was above 100 µM. The TGI in [9] and in assay [8] was above 100 µM each time.

As for `O=C1CC(=O)N(C2CCCCC2)C(=O)N1c1ccccc1S(=O)(=O)Oc1ccccc1`, the TGI in assay [1] is above 100 µM; in assay [2] it was above 100 µM; in [3], above 100 µM; in assay [10] it was 85.9 µM; in assay [6], above 100 µM; in assay [7], above 100 µM. Besides, the TGI in [9] and in assay [8] was above 100 µM throughout.

`C[C@@H](c1ccc2nccn2c1)n1nnc2ncc(-c3cnn(C)c3)nc21`: the GI50 in assay [2], in assay [3], in assay [10], in assay [4], in assay [5] and in [6] was above 100 µM throughout. Also, the GI50 in assay [7], in assay [9] and in [8] was above 100 µM throughout. Moreover, the TGI in assay [2], in [3], in [10], in [4], in assay [5] and in assay [6] was above 100 µM each time. Further, the TGI in assay [7], in assay [9] and in assay [8] was above 100 µM throughout.

With `C/C(=N\N(C)C)c1sc(-n2nc(-c3ccccc3)cc2-c2ccccc2)nc1C`, the TGI in assay [2], in assay [3], in assay [10], in assay [4], in [5] and in assay [6] was above 100 µM each time. Further, the TGI was above 100 µM in assay [7], 81.1 µM in [9] and above 100 µM in [8].

On to `NNC(=O)/C(=C/c1cccc([N+](=O)[O-])c1)NC(=O)c1ccccc1`, for which the TGI in [2], in assay [3], in assay [10], in [4], in assay [5] and in assay [6] was above 100 µM each time. For the same compound, the TGI in assay [7], in assay [9] and in [8] was above 100 µM each time.

With `CC(Cc1ccc(Cl)cc1Cl)NO` (stereo not given), the TGI in [1], in assay [3], in [10], in assay [4], in [5] and in [6] was above 100 µM throughout. Besides, the TGI in [9] and in assay [8] was above 100 µM throughout.

These data come from PubChem BioAssay (NCI).
